Laboratory results as given in patent US5593970A, “Heterocyclic anthracycline analogs” (priority 1994, dated 1997).
Counter-ions that a name gives are not always drawn. Like-named read-outs stand apart in the source and are kept apart here.

Columns and labels:
tumor cell lines [1] = assay: Tumor clonogenic assay, overall; assay type: cell-based
Excerpt: For the IN VITRO test, we chose a tumor clonogenic assay which measures the ability of tumoral cells to form colonies (multicellular growth units) as a result of cell division in semisolid agar support (2,3). A more elaborate version of this fundamental assay, the soft agar colony formation disk diffusion assay was used. This assay defines the relative activity of one particular drug versus a tumoral cell line type. The effect of the test drug against tumoral cells could be measured by its inhibitory capacity against colony formation after the delivery of the compound, in different concentrations on an filter disk(4).
A modified technique of this assay was used in order to investigate the antiproliferative activity of candidate compounds. Tumoral cells from solid tumors and ascitic lines were plated separately in a two layer agar matrix. Cell lines to be tested were suspended in an upper layer of 0.4% Noble agar (Difco#00142-01) in RPMI-1066 (Gibco#3201875) at a yield varying between 10^4 to 2×10^5 cells per 60 mm Petri dish. Plating efficiency was determined for each line in order to achieve an optimal number of colonies per dish. Plates were examined before drug administration to confirm a uniform dispersion of single cells. The bottom layer consisted of 0.8% Noble agar, 0.8% Tryptic Soy Broth (difco#0037001)in CMRL-1066/Fischer's. The bottom layers were used within 2 and 9 days of preparation. Plated dishes (bottom layer of agar, upper layer of cells and administered drug were incubated in humidified atmosphere at 37° C., 5% CO2 for 10-20 days depending upon the time necessary to observe adequate colonies (defined as a cell aggregate of more than 50 cells) both control and drug inhibited. Drugs were administered on a paper filter disk (Whatman No. 1) of 6.5 mm diameter placed on the upper layer at 1/3 distance from the edge of the dish. The anti-clonogenic activity of the compounds was measured as the zone of inhibition from the disk edge to the most proximal colonies. This zone of inhibition was checked on an inverted microscope (40×) and was measured with a micrometer mounted in the eyepiece. The ocular micrometer was calibrated with a stage micrometer set for a particular combination of ocular and objective lenses.
200 units of activity are equivalent to 6.5 mm distance from the disk edge to the first colonies (5). […] We made a modification of the initial technique by not plating a solid tumor and a leukemia simultaneously in the same Petri dish. Anti-clonogenic tests performed on leukemia cell line have helped in the discovery of the majority of current clinically used cytostatic drugs. Our tests on solid tumor lines (animal or human) may help define active compounds with solid tumor specificity. This specific activity would be indicated by a higher level of cloning inhibition in solid tumors versus leukemias (6).

BE-1 = assay: Soft agar colony formation disk diffusion assay; assay type: cell-based, human
Outline: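 Zone of inhibition, disk edge to the most proximal colonies, is the reported measure, checked under an inverted microscope at 40×. Colonies were cell aggregates of more than 50 cells, grown 10–20 days at 37 °C in soft agar around a drug-loaded paper disk.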

NSC Lung = assay: NCI assay, average per cancer type; details: Homo sapiens; for CC50: 48 h, read-out: Average LOG10 LC50; for GI50: read-out: Average LOG10 GI50
Renal = assay: NCI assay, average per cancer type; details: Homo sapiens; for CC50: 48 h, read-out: Average LOG10 LC50; for GI50: read-out: Average LOG10 GI50
tumor cell lines [2] = assay: NCI sulforhodamine B assay, all cell lines; details: for CC50 / IC100 / GI50: Homo sapiens; for CC50 / IC100: 48 h; for CC50: read-out: Log10 LC50, Mean / MG-MID, all cell lines (converted); for IC100: read-out: Log10 TGI, Mean / MG-MID, all cell lines; for GI50: read-out: Log10 GI50, Mean / MG-MID, all cell lines (converted)
Colon = assay: NCI assay, average per cancer type; details: Homo sapiens; for CC50: 48 h, read-out: Average LOG10 LC50; for GI50: read-out: Average LOG10 GI50
SC Lung = assay: NCI assay, average per cancer type; details: Homo sapiens; for CC50: 48 h, read-out: Average LOG10 LC50; for GI50: read-out: Average LOG10 GI50
CNS = assay: NCI assay, average per cancer type; details: Homo sapiens; for CC50: 48 h, read-out: Average LOG10 LC50; for GI50: read-out: Average LOG10 GI50
Melanoma = assay: NCI assay, average per cancer type; details: Homo sapiens; for CC50: 48 h, read-out: Average LOG10 LC50; for GI50: read-out: Average LOG10 GI50

## 3-(2-acetoxy-1-propeneketal)aceto-6-acetoxy-1-hydroxy-1,2,3,4-tetrahydro-(2-oxygen)naphtacene-5,12-dione and 3-(2-acetoxy-1-propeneketal)-aceto-11-acetoxy-1-hydroxy-1,2,3,4-tetrahydro-(2-oxygen)naphtacene-5,12-dione [BCH-710]
Tumor cell lines [1]
  activity and specificity in words: most active
Tumor cell lines [1]; listed as BCH 710
  activity and specificity in words: specificity for the MATB/ADR rat breast ADR resistant adenocarcinoma and mouse ovarian reticulum cell sarcoma

## 3-(2-hydroxy)aceto-6-hydroxy-1,2,3,4-tetrahydro-(2-oxygen)naphthacene-5,12-dione and 3-(2-hydroxy)aceto-11-hydroxy-1,2,3,4-tetrahydro-(2-oxygen)naphthacene-5,12-dione [BCH-694]
BE-1; 10 μg/DISK
  zone of inhibition: 54.9 ± 8.6 Zone Units
BE-1; 100 μg/DISK
  zone of inhibition: 189.0 ± 8.4 Zone Units

## 3-carbomethoxy-6-hydroxy-1,2,3,4-tetrahydro-(2-sulfur)naphthacene-5,12-dione and 3-carbomethoxy-11-hydroxy-1,2,3,4-tetrahydro(2-sulfur)naphthacene-5,12-dione [BCH-693]
BE-1; 10 μg/DISK
  zone of inhibition: 0 Zone Units
BE-1; 100 μg/DISK
  zone of inhibition: 76.2 ± 21.5 Zone Units

## CCOC(=O)[C@@H]1CC2=C(C(=O)c3c(c(O)c4ccccc4c3OC(C)=O)C2=O)[C@@H](O)O1 (mixture of isomers) [BCH-658, (1S,3S) and (1R,3R) Ethyl[11-acetoxy-1,6-dihydroxy-5,12-dioxo-3,4,5,12-tetrahydroanthraceno (2,3-c)pyran-3-yl]formate]
NSC Lung
  CC50: > 100 µM
  GI50: > 100 µM
Renal
  CC50: > 100 µM
  GI50: 46.8 µM
Tumor cell lines [2]
  CC50: 100 µM
  IC100: 97.7 µM
  GI50: 70.8 µM
Colon
  CC50: > 100 µM
  GI50: 61.7 µM
SC Lung
  CC50: > 100 µM
  GI50: > 100 µM
CNS
  CC50: > 100 µM
  GI50: 46.8 µM
BE-1; 10 μg/DISK
  zone of inhibition: 0 Zone Units
BE-1; 100 μg/DISK
  zone of inhibition: 0 Zone Units
Melanoma
  CC50: > 100 µM
  GI50: > 100 µM

## CCOC(=O)[C@@H]1CC2=C(C(=O)c3cc4ccccc4c(OC(C)=O)c3C2=O)[C@@H](O)O1 (mixture of isomers) [BCH-660, (1S,3S) and (1R,3R)-Ethyl-[6-acetoxy-1-hydroxy-5,12-dioxo-3,4,5,12-tetrahydroanthraceno (2,3-c)pyran-3-yl]formate]
NSC Lung
  CC50: 19.5 µM
  GI50: 0.977 µM
Renal
  CC50: 7.94 µM
  GI50: 0.912 µM
Tumor cell lines [2]
  antiproliferative and cytotoxic activity in words: strong antiproliferative (GI50) and potent cytotoxic (LC50) activities
  CC50: 21.4 µM
  IC100: 2.82 µM
  GI50: 0.813 µM
Colon
  CC50: > 100 µM
  GI50: 0.617 µM
SC Lung
  CC50: > 100 µM
  GI50: 1 µM
CNS
  CC50: 15.8 µM
  GI50: 0.955 µM
BE-1; 10 μg/DISK
  zone of inhibition: 45.7 ± 21.5 Zone Units
BE-1; 100 μg/DISK
  zone of inhibition: 125.0 ± 12.7 Zone Units
Melanoma
  CC50: 10.5 µM
  GI50: 0.955 µM

## COC(=O)[C@@H]1CC2=C(C(=O)c3c(c(OC)c4ccccc4c3O)C2=O)[C@@H](O[C@H]2C[C@H](NC(=O)C(F)(F)F)[C@H](O)[C@H](C)O2)O1 (mixture of isomers) [BCH-674, (1'S,1S,3R) and 1'S,1R,3S) Methyl(11-hydroxy-6-methoxy-1-[2',3',6'-trideoxy-3-trifluoroacetamido-4'-hydroxy-L-lyxohexopyranose]-5,12-dioxo-3,4,5,12-tetrahydroanthra-ceno[2,3-c]pyran-3-yl) formate]
NSC Lung
  CC50: 69.2 µM
  GI50: 9.33 µM
Renal
  CC50: 57.5 µM
  GI50: 8.91 µM
Tumor cell lines [2]
  CC50: 67.6 µM
  IC100: 30.2 µM
  GI50: 12.3 µM
Colon
  CC50: 97.7 µM
  GI50: 13.5 µM
SC Lung
  CC50: 120 µM
  GI50: 13.2 µM
CNS
  CC50: 63.1 µM
  GI50: 13.8 µM
Melanoma
  CC50: 89.1 µM
  GI50: 13.2 µM

## COC(=O)[C@H]1CC2=C(C(=O)c3c(c(OC)c4ccccc4c3O)C2=O)[C@H](O[C@H]2C[C@H](NC(=O)C(F)(F)F)[C@H](O)[C@H](C)O2)O1 (mixture of isomers) [BCH-675, (1'S,1S,3R) and 1'S,1R,3S) Methyl(11-hydroxy-6-methoxy-1-[2',3',6'-trideoxy-3-trifluoroacetamido-4'-hydroxy-L-lyxohexopyranose]-5,12-dioxo-3,4,5,12-tetrahydroanthra-ceno[2,3-c]pyran-3-yl) formate]
NSC Lung
  CC50: 56.2 µM
  GI50: 9.33 µM
Renal
  CC50: 56.2 µM
  GI50: 9.12 µM
Tumor cell lines [2]
  CC50: 57.5 µM
  IC100: 21.4 µM
  GI50: 7.94 µM
Colon
  CC50: 85.1 µM
  GI50: 8.71 µM
SC Lung
  GI50: 7.24 µM
CNS
  CC50: 61.7 µM
  GI50: 10.7 µM
BE-1; 10 μg/DISK
  zone of inhibition: 0 Zone Units
BE-1; 100 μg/DISK
  zone of inhibition: 46.7 ± 5.3 Zone Units
Melanoma
  CC50: 79.4 µM
  GI50: 5.89 µM

## CCOC(=O)C1CC2=C(CO1)C(=O)c1c(cc3ccccc3c1O)C2=O (stereo not drawn) [BCH-651, Ethyl(6 and 11 hydroxy-5,12-dioxo-3,4,5,12-tetrahydro-anthraceno[2,3-c]pyran-3-yl)]formate]
NSC Lung
  CC50: 50.1 µM
  GI50: 7.76 µM
Renal
  CC50: 55 µM
  GI50: 10 µM
Tumor cell lines [2]
  antiproliferative and cytotoxic activity in words: strong antiproliferative (GI50) and potent cytotoxic (LC50) activities
  CC50: 58.9 µM
  IC100: 21.4 µM
  GI50: 5.5 µM
Colon
  CC50: 41.7 µM
  GI50: 3.39 µM
SC Lung
  CC50: 61.7 µM
  GI50: 2.75 µM
CNS
  CC50: 64.6 µM
  GI50: 10 µM
BE-1; 10 μg/DISK
  zone of inhibition: 0 Zone Units
BE-1; 100 μg/DISK
  zone of inhibition: 106.7 ± 21.5 Zone Units
Melanoma
  CC50: 34.7 µM
  GI50: 2.75 µM

## CCOC(=O)C1CC2=C(CO1)C(=O)c1cc3ccccc3c(O)c1C2=O (stereo not drawn) [BCH-653, Ethyl(6 and 11 hydroxy-5,12-dioxo-3,4,5,12-tetrahydro-anthraceno[2,3-c]pyran-3-yl)]formate]
NSC Lung
  CC50: > 100 µM
  GI50: 44.7 µM
Renal
  CC50: > 100 µM
  GI50: 57.5 µM
Tumor cell lines [2]
  CC50: 100 µM
  IC100: 100 µM
  GI50: 42.7 µM
Colon
  CC50: > 100 µM
  GI50: 35.5 µM
SC Lung
  CC50: > 100 µM
  GI50: 28.8 µM
CNS
  CC50: > 100 µM
  GI50: 50.1 µM
BE-1; 100 μg/DISK
  zone of inhibition: 76.2 ± 21.5 Zone Units
Melanoma
  CC50: > 100 µM
  GI50: 33.1 µM

## CCOC(=O)C1CC2=C(CO1)C(=O)c1c(c(O)c3ccccc3c1OC(C)=O)C2=O (stereo not drawn) [BCH-654, Ethyl[11-acetoxy-6-hydroxy-5,12-dioxo-3,4,5,12-tetrahydroanthraceno(2,3-c)pyran-3-yl]formate]
BE-1; 10 μg/DISK
  zone of inhibition: 24.4 ± 8.6 Zone Units
BE-1; 100 μg/DISK
  zone of inhibition: 153.0 ± 1.4 Zone Units

## CCOC(=O)[C@@H]1CC2=C(C(=O)c3cc4ccccc4c(O)c3C2=O)[C@@H](O[C@H]2C[C@H](NC(=O)C(F)(F)F)[C@H](O)[C@H](C)O2)O1 [BCH-681, (1'S,1R,3S)Ethyl[6-hydroxy-5,12-dioxo-1-(3'-trifuloroacetamido-1-daunosaminyl)-3,4,5,12-tetrahydroanthraceno(2,3-C)pyran-3-yl]formate]
NSC Lung
  CC50: 22.9 µM
  GI50: 2.88 µM
Renal
  CC50: 21.9 µM
  GI50: 3.02 µM
Tumor cell lines [2]
  CC50: 16.2 µM
  IC100: 5.5 µM
  GI50: 2.14 µM
Colon
  CC50: 7.24 µM
  GI50: 1.41 µM
SC Lung
  CC50: 6.61 µM
  GI50: 1.7 µM
CNS
  CC50: 22.4 µM
  GI50: 2.88 µM
Melanoma
  CC50: 5.01 µM
  GI50: 1.12 µM
